For one assay, the system named is MGC-803. Briefly: Antiproliferative activity against human MGC-803 cells assessed as inhibition of cell proliferation measured after 48 hrs by CCK8 assay. It counts as functional, cell-based. Particulars: MGC-803, 48 h.
For another assay, the system named is A549. Briefly: Antiproliferative activity against human A549 cells assessed as inhibition of cell proliferation measured after 48 hrs by CCK8 assay. In kind it is functional, cell-based. Particulars: A549, 48 h. In general terms: Tetrazolium dyes change colour on reduction, which living cells bring about.
Another assay has as its system KYSE-30. Description: Antiproliferative activity against human KYSE-30 cells assessed as inhibition of cell proliferation measured after 48 hrs by CCK8 assay. It counts as functional, cell-based. Particulars: KYSE-30, 48 h.
Assay [1] concerns KYSE-450. Briefly: Antiproliferative activity against human KYSE-450 cells assessed as inhibition of cell proliferation measured after 48 hrs by CCK8 assay. The settings on record: KYSE-450, 48 h. It counts as functional, cell-based.
The next assay has as its system KYSE-510. Briefly: Antiproliferative activity against human KYSE-510 cells assessed as inhibition of cell proliferation measured after 48 hrs by CCK8 assay. It counts as functional, cell-based. The settings on record: KYSE-510, 48 h.
The test system of a further assay is ECa-109 cell line. Briefly: Antiproliferative activity against human Eca-109 cells assessed as inhibition of cell proliferation measured after 48 hrs by CCK8 assay. In kind it is functional, cell-based. Particulars: ECa-109, 48 h.
The next assay has as its target Tubulin (Homo sapiens) (UniProt P68371+Q9H4B7+P0DPH7+P68366+Q13509+Q71U36+P04350+Q3ZCM7+P07437+P68363+Q9BQE3+Q6PEY2+Q13885+Q9BVA1+Q9BUF5). Description: Inhibition of tubulin polymerization in human KYSE-450 cells assessed by disorganised spindle at 1.25 to 2.5 uM measured after 48 hrs by immunoflourescence assay relative to colchicine. The settings on record: dose 1.25-2.5 µM. It counts as cell-based.

The target of another assay is Tubulin. Briefly: Inhibition of tubulin polymerization in human KYSE-450 cells measured by EBI competition assay relative to colchicine. In kind it is cell-based.
In assay [2] the test system is KYSE-450. Briefly: Antiproliferative activity against human KYSE-450 cells assessed reduced cell viability at 1 to 80 uM measured after 48 hrs. It counts as functional, cell-based. The settings on record: dose 1-80 µM.
For assay [3], the system named is KYSE-450. Description: Antiproliferative activity against human KYSE-450 cells assessed reduced cell viability at 0.313 to 2.5 uM. In kind it is functional, cell-based. Particulars: dose 0.313-2.5 µM, time 20-40 hrs, TDE = time-dependent effect.
Assay [4] deals with KYSE-450. Description: Antiproliferative activity against human KYSE-450 cells assessed reduced cell viability measured after 20 to 60 hrs. In kind it is functional, cell-based. Particulars: dose 0.313-2.5 µM, time 20-60 hrs.
For assay [5], the system named is KYSE-450. Briefly: Induction of apoptosis in human KYSE-450 cells assessed by round cells at 0.313 to 2.5 uM measured after 48 hrs by DAPI staining based microscopic method. In kind it is functional, cell-based. Particulars: dose 0.313-2.5 µM.
Assay [6] concerns KYSE-450. Description: Induction of apoptosis in human KYSE-450 cells assessed by smaller nucleus at 0.313 to 2.5 uM measured after 48 hrs by DAPI staining based microscopic method. In kind it is functional, cell-based. Particulars: dose 0.313-2.5 µM.
The subject of assay [7] is KYSE-450. Description: Induction of apoptosis in human KYSE-450 cells assessed by concentrated nucleus at 0.313 to 2.5 uM measured after 48 hrs by DAPI staining based microscopic method. It counts as functional, cell-based. The settings on record: dose 0.313-2.5 µM.
The subject of assay [8] is KYSE-450. Briefly: Antiproliferative activity against human KYSE-450 cells assessed as inhibition of colony formation at 0.188 uM measured after 7 days by colony formation assay. The settings on record: time 7.0 day. It counts as functional, cell-based.

The source made the active and inactive calls. The rule behind the calls is not given here. Some results are limits rather than exact numbers.

In the case of `COc1cc(C(=O)N2CCCc3ccccc32)cc(OC)c1OC`, the concentration for half-maximal inhibition (IC50) (in general, the concentration at which inhibition is half-maximal) in the assay with MGC-803 was 4.41 µM; with A549, 23.7 µM; with KYSE-30 it was 6.72 µM.

Consider `Cc1ccc(C(=O)N2CCc3cc(Br)ccc32)cc1`, for which the figures for the IC50 with MGC-803, in the assay with A549 and in the assay with KYSE-30 were over 40 µM, 38.9 µM and over 40 µM, respectively.

Take `COc1cc(C(=O)N2CCCCc3ccccc32)cc(OC)c1OC`: the values for the IC50 with MGC-803, with A549 and in the assay on KYSE-30 were 4.3 µM, 21.7 µM and 16.6 µM, respectively.

In the case of `COc1cc(C(=O)N2CCc3cc([N+](=O)[O-])ccc32)cc(OC)c1OC`, the values for the IC50 with MGC-803, in the assay on A549 and in the assay with KYSE-30 were 8.32 µM, 17.7 µM and 6.55 µM, respectively.

Turning to `COc1ccc(C(=O)N2CCc3cc(Br)ccc32)cc1`, the figures for the IC50 in the assay with MGC-803, in the assay with A549 and with KYSE-30 were 18.8 µM, 21.1 µM and 18.9 µM, respectively.

As for `O=C(Cc1ccc(Br)cc1)N1CCc2cc(Br)ccc21`, the IC50 is 35.8 µM in the assay on MGC-803, over 40 µM in the assay on A549 and 20.7 µM with KYSE-30.

Consider `COc1ccc(CC(=O)N2CCc3cc(Br)ccc32)cc1`, for which the IC50 in the assay with MGC-803 is 28.7 µM; in the assay with A549, 24.8 µM; in the assay on KYSE-30, over 40 µM.

On to `O=C(c1ccc(Br)cc1)N1CCc2cc(Br)ccc21`, for which the IC50 is 33.6 µM in the assay on MGC-803, over 40 µM in the assay on A549 and 26.8 µM in the assay on KYSE-30.

Turning to `COc1cc(CC(=O)N2CCc3cc(Br)ccc32)cc(OC)c1OC`, the figures for the IC50 with MGC-803, with A549 and in the assay with KYSE-30 were 22.4 µM, 24.8 µM and 20.2 µM, respectively.

With `COc1cc2c(c(OC)c1OC)-c1ccc(OC)c(=O)cc1[C@@H](NC(C)=O)CC2` [COLCHICINE], the IC50 in the assay on MGC-803 was determined as 1.07 µM; in the assay with A549, 0.19 µM; in the assay with KYSE-30, 0.28 µM.

Regarding `Cc1ccc(CC(=O)N2CCc3cc(Br)ccc32)cc1`, the IC50 in the assay on MGC-803 is 38.2 µM; in the assay on A549, over 40 µM; in the assay on KYSE-30, 33.2 µM.

For the molecule `O=C(Cc1ccc(F)cc1)N1CCc2cc(Br)ccc21`, the IC50 with MGC-803, in the assay on A549 and in the assay with KYSE-30 was over 40 µM in each case.

As for `O=C(c1ccc(F)cc1)N1CCc2cc(Br)ccc21`, the IC50 in the assay with MGC-803 is 24.1 µM; in the assay with A549, 18.9 µM; in the assay with KYSE-30 it was 22.1 µM.

In the case of `O=C(Cc1ccccc1)N1CCc2cc(Br)ccc21`, the IC50 with MGC-803 was 82.8 µM; with A549, 28.5 µM; in the assay on KYSE-30 it was over 40 µM.

For `COc1cc(C(=O)N2CCc3ccccc32)cc(OC)c1OC`, the IC50 in the assay on MGC-803 worked out at 7.57 µM; with A549, 22 µM; with KYSE-30 it was 7.72 µM.

For `O=C(c1ccccc1)N1CCc2cc(Br)ccc21`, the values for the IC50 with MGC-803, with A549 and in the assay on KYSE-30 were 28.5 µM, over 40 µM and 20.3 µM, respectively.

In the case of `COc1cc(C(=O)N2CCc3cc(Br)ccc32)cc(OC)c1OC`, the IC50 in the assay on MGC-803 stood at 1.84 µM; in the assay on A549, 6.82 µM; in the assay on KYSE-30 it was 1.61 µM; in the assay with KYSE-450 [1] it was 1.49 µM; in the assay on KYSE-510, 2.08 µM; in the assay on ECa-109 cell line, 2.24 µM. The molecule also yielded an IC50 on Tubulin of 3.4 µM. The inhibition entry on Tubulin (Homo sapiens) was “Active”. Further, the result in the assay with KYSE-450 [2], in the assay with KYSE-450 [5], in the assay on KYSE-450 [6], in the assay on KYSE-450 [7] and in the assay with KYSE-450 [8] was Active. Also, the Activity result in the assay with KYSE-450 [3] is “Tde”; in the assay with KYSE-450 [4], “Dose-Dependent Effect”.

The record behind these values is ChEMBL document CHEMBL4811276, “WITHDRAWN: Discovery of indoline derivatives as anticancer agents via inhibition of tubulin polymerization” (Bioorg Med Chem Lett, 2021).
